In test [1] the target is Macrophage colony-stimulating factor 1 receptor (Homo sapiens) (UniProt P07333). Briefly: Inhibition of human recombinant FMS at 15 nM in presence of ATP by radiometric assay relative to control.
The target in test [2] is T1, Serine/threonine-protein kinase ULK3 (Homo sapiens) (UniProt Q6PHR2).
T1 sequence (whole entry): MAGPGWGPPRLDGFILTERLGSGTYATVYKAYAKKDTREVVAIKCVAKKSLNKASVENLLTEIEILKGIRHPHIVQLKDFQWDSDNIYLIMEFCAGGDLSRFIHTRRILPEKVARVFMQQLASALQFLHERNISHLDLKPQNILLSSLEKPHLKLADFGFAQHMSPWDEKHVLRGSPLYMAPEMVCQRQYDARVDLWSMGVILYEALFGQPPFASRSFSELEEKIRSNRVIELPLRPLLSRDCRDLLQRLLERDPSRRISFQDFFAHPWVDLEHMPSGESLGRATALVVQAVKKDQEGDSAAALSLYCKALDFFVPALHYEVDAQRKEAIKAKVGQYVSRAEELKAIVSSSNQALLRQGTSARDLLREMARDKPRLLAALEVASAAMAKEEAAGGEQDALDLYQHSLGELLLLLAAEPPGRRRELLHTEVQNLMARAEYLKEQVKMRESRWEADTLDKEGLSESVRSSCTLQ
Briefly: Inhibition of human recombinant ULK3 at 15 nM related to control ULK1.

Test [3] deals with T2, Bone morphogenetic protein receptor type-2 (Homo sapiens) (UniProt Q13873).
T2 sequence (whole entry): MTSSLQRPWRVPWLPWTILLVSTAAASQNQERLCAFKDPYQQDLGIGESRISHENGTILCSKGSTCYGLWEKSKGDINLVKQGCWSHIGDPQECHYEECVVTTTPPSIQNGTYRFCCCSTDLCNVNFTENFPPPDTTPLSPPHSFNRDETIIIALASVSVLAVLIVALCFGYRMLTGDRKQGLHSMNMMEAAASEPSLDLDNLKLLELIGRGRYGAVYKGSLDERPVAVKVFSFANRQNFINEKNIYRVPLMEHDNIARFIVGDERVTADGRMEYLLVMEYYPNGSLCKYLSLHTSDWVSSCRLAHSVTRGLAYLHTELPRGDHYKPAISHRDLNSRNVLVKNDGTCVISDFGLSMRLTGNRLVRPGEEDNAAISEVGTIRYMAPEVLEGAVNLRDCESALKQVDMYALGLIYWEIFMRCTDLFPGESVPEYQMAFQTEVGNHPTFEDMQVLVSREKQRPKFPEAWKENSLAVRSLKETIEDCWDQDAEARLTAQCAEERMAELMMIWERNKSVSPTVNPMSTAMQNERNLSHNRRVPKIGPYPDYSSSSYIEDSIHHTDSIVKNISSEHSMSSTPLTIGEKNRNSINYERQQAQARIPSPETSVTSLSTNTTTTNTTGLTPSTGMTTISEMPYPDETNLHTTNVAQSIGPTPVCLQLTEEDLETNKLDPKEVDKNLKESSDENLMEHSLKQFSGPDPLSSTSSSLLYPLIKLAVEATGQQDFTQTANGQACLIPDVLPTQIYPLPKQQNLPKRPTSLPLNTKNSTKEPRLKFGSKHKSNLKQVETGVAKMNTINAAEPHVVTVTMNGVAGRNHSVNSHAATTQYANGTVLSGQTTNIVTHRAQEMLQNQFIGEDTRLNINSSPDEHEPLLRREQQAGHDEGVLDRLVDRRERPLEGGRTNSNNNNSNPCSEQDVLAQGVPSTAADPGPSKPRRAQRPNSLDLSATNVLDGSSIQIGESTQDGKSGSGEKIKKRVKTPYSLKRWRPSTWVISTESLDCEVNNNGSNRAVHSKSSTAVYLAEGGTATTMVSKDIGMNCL
Briefly: Inhibition of human recombinant BMPR2 at 40 nM in presence of ATP by radiometric assay relative to control.

The target in test [4] is Serine/threonine-protein kinase SIK1 (Homo sapiens) (UniProt P57059). As to the kind of experiment: Inhibition of human recombinant SIK at 40 nM related to control ULK1.
Test [5] addresses Macrophage-stimulating protein receptor (Homo sapiens) (UniProt Q04912). As to the kind of experiment: Inhibition of human recombinant RON at 500 nM in presence of ATP by radiometric assay relative to control.
Test [6] concerns the target Death-associated protein kinase 3 (Homo sapiens) (UniProt O43293). Briefly: Inhibition of human recombinant DAPK3 at 500 nM related to control ULK1.
Test [7] has as its target T3, Ephrin type-A receptor 3 (Homo sapiens) (UniProt P29320).
T3 sequence (whole entry): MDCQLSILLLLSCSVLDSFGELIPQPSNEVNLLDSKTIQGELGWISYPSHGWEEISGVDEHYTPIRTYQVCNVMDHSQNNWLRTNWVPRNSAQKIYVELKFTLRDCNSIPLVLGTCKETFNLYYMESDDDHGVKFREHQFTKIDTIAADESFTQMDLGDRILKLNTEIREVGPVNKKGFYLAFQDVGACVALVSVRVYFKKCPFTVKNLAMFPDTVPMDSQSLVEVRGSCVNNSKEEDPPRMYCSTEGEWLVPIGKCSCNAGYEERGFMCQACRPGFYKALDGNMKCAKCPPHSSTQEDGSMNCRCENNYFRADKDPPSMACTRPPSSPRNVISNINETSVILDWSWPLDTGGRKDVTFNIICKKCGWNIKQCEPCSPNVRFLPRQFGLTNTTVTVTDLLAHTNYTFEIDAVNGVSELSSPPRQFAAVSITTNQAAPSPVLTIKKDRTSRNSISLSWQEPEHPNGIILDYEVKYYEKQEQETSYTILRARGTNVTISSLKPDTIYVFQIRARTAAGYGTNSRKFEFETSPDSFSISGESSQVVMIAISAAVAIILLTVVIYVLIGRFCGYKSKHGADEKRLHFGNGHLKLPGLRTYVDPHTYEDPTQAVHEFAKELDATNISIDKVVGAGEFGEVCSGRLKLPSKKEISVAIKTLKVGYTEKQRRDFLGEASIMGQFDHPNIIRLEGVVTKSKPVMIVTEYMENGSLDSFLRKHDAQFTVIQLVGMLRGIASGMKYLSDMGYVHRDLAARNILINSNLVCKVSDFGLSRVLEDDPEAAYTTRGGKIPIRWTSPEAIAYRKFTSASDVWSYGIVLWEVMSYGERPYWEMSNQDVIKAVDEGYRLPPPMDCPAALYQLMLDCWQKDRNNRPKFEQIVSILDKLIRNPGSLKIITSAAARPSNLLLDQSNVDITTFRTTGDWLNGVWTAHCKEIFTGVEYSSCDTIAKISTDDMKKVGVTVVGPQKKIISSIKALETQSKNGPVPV
Briefly: Inhibition of human recombinant EphA3 at 500 nM related to control ULK1.

Test [8] addresses Serine/threonine-protein kinase N2 (Homo sapiens) (UniProt Q16513). Briefly: Inhibition of human recombinant PKN2 at 500 nM in presence of ATP by radiometric assay relative to control.

Sequence of Serine/threonine-protein kinase SIK1 (Homo sapiens) (P57059 whole entry): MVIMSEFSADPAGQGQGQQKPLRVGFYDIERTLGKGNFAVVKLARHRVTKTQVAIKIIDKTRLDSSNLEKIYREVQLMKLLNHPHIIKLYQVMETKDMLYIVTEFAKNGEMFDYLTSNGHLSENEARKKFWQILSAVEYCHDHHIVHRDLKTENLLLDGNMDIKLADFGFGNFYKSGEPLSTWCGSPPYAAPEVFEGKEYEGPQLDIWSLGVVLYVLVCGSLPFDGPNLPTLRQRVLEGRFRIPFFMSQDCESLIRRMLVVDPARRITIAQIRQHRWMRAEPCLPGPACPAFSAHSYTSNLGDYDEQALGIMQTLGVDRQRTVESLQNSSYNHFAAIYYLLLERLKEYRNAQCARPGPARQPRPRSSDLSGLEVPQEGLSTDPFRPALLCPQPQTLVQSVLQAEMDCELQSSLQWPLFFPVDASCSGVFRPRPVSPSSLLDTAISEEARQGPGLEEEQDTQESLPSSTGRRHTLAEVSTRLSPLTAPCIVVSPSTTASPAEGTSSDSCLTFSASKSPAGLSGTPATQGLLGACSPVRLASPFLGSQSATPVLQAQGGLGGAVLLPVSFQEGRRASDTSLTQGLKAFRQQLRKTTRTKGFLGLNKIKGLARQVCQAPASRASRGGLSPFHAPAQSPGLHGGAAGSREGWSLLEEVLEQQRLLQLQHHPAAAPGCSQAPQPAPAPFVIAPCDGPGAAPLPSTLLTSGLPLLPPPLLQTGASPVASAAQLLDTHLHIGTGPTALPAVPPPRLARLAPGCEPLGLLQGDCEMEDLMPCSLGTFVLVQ
Sequence of Serine/threonine-protein kinase N2 (Homo sapiens) (Q16513 whole entry, looked up): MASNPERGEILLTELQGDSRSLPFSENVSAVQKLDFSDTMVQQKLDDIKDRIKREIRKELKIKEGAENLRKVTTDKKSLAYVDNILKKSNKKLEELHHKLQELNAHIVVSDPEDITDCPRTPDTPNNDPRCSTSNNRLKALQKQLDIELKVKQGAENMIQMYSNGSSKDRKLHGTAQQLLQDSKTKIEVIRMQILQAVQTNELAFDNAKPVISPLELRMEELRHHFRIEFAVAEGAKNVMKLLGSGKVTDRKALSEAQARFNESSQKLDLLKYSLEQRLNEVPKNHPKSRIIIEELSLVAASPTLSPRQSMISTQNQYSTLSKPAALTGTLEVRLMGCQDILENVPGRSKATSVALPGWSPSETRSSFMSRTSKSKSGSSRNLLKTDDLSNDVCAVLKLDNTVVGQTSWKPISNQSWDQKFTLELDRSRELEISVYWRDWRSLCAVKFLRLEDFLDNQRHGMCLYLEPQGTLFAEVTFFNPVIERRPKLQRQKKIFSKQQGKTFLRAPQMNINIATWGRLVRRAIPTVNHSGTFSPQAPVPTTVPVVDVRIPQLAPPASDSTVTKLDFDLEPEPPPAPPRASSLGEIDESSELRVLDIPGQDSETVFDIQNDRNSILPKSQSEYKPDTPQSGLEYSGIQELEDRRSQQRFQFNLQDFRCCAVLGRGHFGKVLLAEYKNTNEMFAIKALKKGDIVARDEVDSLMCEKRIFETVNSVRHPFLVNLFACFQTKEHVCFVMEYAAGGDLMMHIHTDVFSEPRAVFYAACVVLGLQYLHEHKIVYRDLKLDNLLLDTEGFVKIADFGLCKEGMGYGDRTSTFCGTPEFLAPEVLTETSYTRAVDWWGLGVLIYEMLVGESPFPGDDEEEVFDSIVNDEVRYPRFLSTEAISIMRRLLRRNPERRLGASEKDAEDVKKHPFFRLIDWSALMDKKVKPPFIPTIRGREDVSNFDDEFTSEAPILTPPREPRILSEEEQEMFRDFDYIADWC
Sequence of Death-associated protein kinase 3 (Homo sapiens) (O43293 whole entry, looked up): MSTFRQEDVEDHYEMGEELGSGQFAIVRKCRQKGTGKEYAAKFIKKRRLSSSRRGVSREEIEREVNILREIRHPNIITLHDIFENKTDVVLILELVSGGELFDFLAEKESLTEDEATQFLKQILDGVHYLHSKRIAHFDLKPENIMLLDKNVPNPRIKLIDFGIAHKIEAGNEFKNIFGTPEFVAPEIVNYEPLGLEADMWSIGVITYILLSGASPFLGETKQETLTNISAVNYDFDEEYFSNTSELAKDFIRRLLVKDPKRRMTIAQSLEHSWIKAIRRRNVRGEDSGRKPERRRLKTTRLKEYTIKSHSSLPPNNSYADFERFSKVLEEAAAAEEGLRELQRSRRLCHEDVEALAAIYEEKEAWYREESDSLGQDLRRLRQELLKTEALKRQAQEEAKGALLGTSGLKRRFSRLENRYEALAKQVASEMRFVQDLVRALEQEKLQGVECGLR
Sequence of Macrophage-stimulating protein receptor (Homo sapiens) (Q04912 25-304 limits assumed): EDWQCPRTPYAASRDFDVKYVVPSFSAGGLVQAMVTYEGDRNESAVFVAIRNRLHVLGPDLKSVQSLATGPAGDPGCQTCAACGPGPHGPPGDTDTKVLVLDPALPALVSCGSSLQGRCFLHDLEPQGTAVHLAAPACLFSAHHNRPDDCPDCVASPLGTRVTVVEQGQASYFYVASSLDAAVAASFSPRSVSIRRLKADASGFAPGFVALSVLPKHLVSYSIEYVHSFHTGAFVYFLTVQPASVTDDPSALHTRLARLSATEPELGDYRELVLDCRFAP
Sequence of Macrophage-stimulating protein receptor (Homo sapiens) (Q04912 310-1400 limits assumed): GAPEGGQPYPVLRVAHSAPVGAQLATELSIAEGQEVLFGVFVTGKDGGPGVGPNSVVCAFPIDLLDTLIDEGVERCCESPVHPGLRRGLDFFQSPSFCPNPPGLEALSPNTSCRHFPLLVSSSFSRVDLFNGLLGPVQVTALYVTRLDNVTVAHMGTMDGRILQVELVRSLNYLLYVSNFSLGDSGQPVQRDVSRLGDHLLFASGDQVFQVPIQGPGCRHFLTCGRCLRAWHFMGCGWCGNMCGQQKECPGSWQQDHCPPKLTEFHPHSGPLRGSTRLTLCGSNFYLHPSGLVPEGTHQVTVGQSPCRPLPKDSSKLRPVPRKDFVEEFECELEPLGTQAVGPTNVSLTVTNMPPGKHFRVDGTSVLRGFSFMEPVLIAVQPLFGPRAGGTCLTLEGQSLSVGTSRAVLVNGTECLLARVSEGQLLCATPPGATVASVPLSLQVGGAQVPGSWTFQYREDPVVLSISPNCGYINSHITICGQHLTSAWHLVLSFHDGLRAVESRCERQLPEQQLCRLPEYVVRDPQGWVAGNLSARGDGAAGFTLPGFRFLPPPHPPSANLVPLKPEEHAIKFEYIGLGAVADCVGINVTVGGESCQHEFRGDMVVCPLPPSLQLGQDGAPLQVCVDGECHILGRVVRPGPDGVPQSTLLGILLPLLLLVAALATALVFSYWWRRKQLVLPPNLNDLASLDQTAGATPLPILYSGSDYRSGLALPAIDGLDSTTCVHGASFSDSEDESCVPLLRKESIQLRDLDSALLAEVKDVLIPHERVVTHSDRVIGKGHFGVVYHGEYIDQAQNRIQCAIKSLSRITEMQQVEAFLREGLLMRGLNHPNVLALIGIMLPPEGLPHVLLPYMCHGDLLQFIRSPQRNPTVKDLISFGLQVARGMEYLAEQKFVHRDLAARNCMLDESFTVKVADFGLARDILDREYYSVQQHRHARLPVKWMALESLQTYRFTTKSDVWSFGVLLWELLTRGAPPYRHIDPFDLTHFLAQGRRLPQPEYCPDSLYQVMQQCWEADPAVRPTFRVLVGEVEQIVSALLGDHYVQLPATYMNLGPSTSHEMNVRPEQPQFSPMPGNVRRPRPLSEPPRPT
Sequence of Macrophage colony-stimulating factor 1 receptor (Homo sapiens) (P07333 whole entry): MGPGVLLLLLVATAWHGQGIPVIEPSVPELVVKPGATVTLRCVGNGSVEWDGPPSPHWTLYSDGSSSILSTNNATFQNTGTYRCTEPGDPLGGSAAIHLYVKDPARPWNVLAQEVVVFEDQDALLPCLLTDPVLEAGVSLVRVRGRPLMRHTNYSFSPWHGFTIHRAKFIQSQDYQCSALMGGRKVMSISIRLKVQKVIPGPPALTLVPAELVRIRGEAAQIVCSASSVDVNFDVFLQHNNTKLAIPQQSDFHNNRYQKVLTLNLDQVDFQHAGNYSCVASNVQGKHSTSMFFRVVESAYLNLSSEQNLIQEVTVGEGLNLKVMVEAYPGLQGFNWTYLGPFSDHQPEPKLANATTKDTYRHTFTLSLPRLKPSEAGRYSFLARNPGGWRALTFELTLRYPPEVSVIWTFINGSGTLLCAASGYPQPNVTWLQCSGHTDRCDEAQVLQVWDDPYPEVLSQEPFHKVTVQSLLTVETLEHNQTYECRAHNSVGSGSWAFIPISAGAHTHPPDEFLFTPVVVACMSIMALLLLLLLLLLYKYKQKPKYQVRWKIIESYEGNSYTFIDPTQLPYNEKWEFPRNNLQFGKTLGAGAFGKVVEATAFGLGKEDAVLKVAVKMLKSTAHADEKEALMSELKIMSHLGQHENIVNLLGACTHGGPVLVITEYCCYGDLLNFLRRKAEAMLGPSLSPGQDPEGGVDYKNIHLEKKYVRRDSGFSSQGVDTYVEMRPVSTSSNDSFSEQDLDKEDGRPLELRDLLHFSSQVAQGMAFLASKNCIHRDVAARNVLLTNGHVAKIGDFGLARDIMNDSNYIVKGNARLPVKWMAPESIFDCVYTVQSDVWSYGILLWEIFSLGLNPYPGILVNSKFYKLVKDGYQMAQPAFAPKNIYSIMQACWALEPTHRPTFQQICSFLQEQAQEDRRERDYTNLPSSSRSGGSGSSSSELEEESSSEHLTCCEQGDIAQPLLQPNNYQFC

Consider `CC(C)[C@H](NC(=O)c1cc(-c2cnn3cc(-c4ccc(OCCN5CCCCC5)cc4)cnc23)cs1)C(F)(F)F`, for which the inhibition (usually the relative decrease from the control value, in per cent) in test [1] turned out to be 17%. Besides, the fold change (FC) in test [2] turned out to be 0.45.
Turning to `O=C(N[C@@H](C1CC1)C(F)(F)F)c1cc(-c2cnn3cc(-c4ccc(F)cc4)cnc23)cs1`, in test [3], the inhibition is 6%. The fold change (FC) in test [4] turned out to be 0.27.
On to `CNC(=O)c1ccccc1Oc1nc(Nc2cc(OC)c(OC)c(OC)c2)ncc1Br`, for which the inhibition in test [5] was determined as 1%; in test [8] it was 0%. Moreover, the fold change (FC) is 0.14 in test [6] and 0.15 in test [7].
